Measurements from patent US7019109B2, “SSTR1-selective analogs” (The Salk Institute for Bilogical Studies, priority 2001, dated 2006).
Read-outs that look alike come from different tables or passages of the source. *1 amine or outer side, *2 acyl side, *3 side chain or, on linkers, in order; H or OH if unused. Where a SMILES comes first, the peptide text is derived from it. Bridges are numbered along the chain shown (N, C = ends). [ ]: non-standard residue; d: D form. NMePhe(4-CH2NHiPr) = CN[C@@H](Cc1ccc(CNC(C)C)cc1)C(=O)O; Phe(4-CH2NHiPr) = CC(C)NCc1ccc(C[C@H](N)C(=O)O)cc1; Tyr(3-I) = N[C@@H](Cc1ccc(O)c(I)c1)C(=O)O; X1 = NC(=O)N[C@@H](CS[*:2])C(=O)[*:1]; d2Nal = N[C@H](Cc1ccc2ccccc2c1)C(=O)O

Columns and labels:
Type in all cases: binding
[1] = molecular target: T1, human SSTR4 (Homo sapiens, UniProt P31391); experiment: Displacement of 125I-[Leu8,D-Trp22,Tyr25]-SRIF-28 from cloned SSTR4 (receptor autoradiography); conditions: for binding to SSTR4, in words: Peptide No. 27 iodinated
T1 construct: expressed in transfected cells; host or cells: CHO-K1 cells and CCL39 cells
T1 sequence (P31391 whole entry): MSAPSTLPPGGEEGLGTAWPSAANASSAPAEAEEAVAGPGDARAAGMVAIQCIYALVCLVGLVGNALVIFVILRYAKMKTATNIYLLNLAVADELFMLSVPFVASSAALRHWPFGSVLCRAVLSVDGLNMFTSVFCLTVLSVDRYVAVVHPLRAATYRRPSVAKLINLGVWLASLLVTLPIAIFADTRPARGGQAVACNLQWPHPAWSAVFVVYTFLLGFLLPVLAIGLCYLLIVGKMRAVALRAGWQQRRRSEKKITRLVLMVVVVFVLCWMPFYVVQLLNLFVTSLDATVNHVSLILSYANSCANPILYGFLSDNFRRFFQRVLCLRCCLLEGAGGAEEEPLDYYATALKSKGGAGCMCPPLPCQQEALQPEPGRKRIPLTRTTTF
Description: (§1) Generally, recombinant cells expressing the receptor are washed and homogenized to prepare a crude protein homogenate that is frozen, embedded and then cut in 10–20 μm thin sections, as known in this art. Candidate substances, such as potential SRIF agonists and antagonists, are incubated with the tissue sections, and the interaction between the candidate substance and the receptor polypeptide is monitored.
(§2) Receptor binding assays are performed on cloned SRIF receptors as generally set forth in Reubi, J. C. et al., J. Clin. Endocrinol. […] Med. 2000, 27, 273–282.
(§3) In vitro Bioassay: The various somatostatin analogs are tested in vitro for their ability to bind to isolated cloned receptors expressed on CHO-K1 cells and CCL39 cells. CHO-K1 cells are grown in Ham's F-12 medium, and CCL39 cells are grown in Dulbecco's modified Eagle's medium/Ham's F-12(1:1) mix, supplemented with 10% fetal bovine serum, 100 U/ml penicillin and 100 μg/ml streptomycin, in humidified air containing 5% CO2 at 37° C.
(§4) Cells are washed and prepared to produce homogenates as described in detail in Reubi, J. C. et al, Eur. J. Nucl. Med. 2000, 27, 273–282.
(§5) Receptor autoradiography is performed on 20 μm thick cryostat sections of the membrane pellets, mounted on microscope slides, and then stored at −20° C. […] Increasing concentrations of the unlabeled peptide are used ranging from 0.1–1000 nM. […] IC50 values are calculated after quantification of the data using a computer-assisted image processing system as known in this art.

[2] = molecular target: T2, human SSTR2 (Homo sapiens, UniProt P30874); experiment: Displacement of 125I-[Leu8,D-Trp22,Tyr25]-SRIF-28 from cloned SSTR2 (receptor autoradiography)
T2 construct: expressed in transfected cells; host or cells: CHO-K1 cells and CCL39 cells
T2 sequence (P30874 whole entry): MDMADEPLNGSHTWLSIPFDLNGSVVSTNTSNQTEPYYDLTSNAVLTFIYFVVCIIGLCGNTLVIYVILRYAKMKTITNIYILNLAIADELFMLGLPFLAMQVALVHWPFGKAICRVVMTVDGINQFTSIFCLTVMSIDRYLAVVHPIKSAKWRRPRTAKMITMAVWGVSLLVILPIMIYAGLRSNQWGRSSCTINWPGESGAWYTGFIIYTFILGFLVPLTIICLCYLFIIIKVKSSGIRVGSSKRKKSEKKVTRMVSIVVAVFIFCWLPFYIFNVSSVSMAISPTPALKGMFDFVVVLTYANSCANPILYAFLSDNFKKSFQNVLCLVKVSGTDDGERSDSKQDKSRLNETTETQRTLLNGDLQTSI
Description: as §1, §2, §3, §4
(§6) Receptor autoradiography is performed on 20 μm thick cryostat sections of the membrane pellets, mounted on microscope slides, and then stored at −20° C. […] […] […] IC50 values are calculated after quantification of the data using a computer-assisted image processing system as known in this art.

[3] = molecular target: T3, human SSTR3 (Homo sapiens, UniProt P32745); experiment: Displacement of 125I-[Leu8,D-Trp22,Tyr25]-SRIF-28 from cloned SSTR3 (receptor autoradiography); conditions: for effect on binding of the SRIF-28 radioligand to human SSTR3: at concentrations of 100 nM; for binding to SSTR3, in words: Peptide No. 27 iodinated
T3 construct: expressed in transfected cells; host or cells: CHO-K1 cells and CCL39 cells
T3 sequence (P32745 whole entry): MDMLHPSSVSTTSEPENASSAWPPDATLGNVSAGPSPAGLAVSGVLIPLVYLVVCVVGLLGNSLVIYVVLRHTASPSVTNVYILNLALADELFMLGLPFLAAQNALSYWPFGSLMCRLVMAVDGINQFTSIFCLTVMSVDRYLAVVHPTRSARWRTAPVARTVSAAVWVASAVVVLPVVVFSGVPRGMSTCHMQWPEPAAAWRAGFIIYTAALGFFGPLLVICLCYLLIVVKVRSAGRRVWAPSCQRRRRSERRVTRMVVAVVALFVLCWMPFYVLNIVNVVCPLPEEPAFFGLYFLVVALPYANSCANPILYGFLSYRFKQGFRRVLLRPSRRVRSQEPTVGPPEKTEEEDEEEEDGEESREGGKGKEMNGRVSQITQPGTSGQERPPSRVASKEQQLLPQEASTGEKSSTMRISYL
Description: as §1, §2, §3, §4, §5

[4] = molecular target: T4, human SSTR1 (Homo sapiens, UniProt P30872); experiment: Displacement of 125I-[Leu8,D-Trp22,Tyr25]-SRIF-28 from cloned SSTR1 (receptor autoradiography); conditions: for binding strength and selectivity for SSTR1, in words: Peptide No. 27 and 2A after iodination
T4 construct: expressed in transfected cells; host or cells: CHO-K1 cells and CCL39 cells
T4 sequence (P30872 whole entry): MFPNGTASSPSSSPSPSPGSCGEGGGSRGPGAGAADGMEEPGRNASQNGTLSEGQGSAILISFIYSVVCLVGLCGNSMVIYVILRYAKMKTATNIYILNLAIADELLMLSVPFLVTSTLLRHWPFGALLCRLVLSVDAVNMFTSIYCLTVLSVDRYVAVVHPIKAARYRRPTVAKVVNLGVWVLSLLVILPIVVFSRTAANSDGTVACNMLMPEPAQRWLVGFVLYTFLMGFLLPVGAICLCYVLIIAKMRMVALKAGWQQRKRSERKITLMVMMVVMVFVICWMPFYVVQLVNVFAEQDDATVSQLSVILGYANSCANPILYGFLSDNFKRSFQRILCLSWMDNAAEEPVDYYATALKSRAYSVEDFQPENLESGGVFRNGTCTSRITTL
Description: as §1, §2, §3, §4, §5

[5] = molecular target: T5, human SSTR5 (Homo sapiens, UniProt P35346); experiment: Displacement of 125I-[Leu8,D-Trp22,Tyr25]-SRIF-28 from cloned SSTR5 (receptor autoradiography)
T5 construct: expressed in transfected cells; host or cells: CHO-K1 cells and CCL39 cells
T5 sequence (P35346 whole entry): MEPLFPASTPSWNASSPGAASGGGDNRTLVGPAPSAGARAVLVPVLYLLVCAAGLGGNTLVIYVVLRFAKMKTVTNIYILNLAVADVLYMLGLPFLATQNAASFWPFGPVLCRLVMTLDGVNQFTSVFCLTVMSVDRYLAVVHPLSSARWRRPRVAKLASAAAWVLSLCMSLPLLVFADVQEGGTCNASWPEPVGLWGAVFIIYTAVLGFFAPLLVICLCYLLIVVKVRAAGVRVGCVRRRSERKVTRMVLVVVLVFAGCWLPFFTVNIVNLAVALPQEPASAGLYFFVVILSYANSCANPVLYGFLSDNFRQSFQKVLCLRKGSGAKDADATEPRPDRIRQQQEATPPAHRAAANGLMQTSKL
Description: as §1, §2, §3, §4, §6

[6] = inhibition of radioligand binding of 125I-[Leu8,D-Trp22,Tyr24]SRIF-28, cloned receptor, table, read-out: IC50 (nM) mSSTR4
[7] = inhibition of radioligand binding of 125I-[Leu8,D-Trp22,Tyr24]SRIF-28, cloned receptor, table, read-out: IC50 (nM) mSSTR2
[8] = read-out: concentration below which no binding to SSTR2
[9] = inhibition of radioligand binding of 125I-[Leu8,D-Trp22,Tyr24]SRIF-28, cloned receptor, table, read-out: IC50 (nM) mSSTR5
[10] = read-out: concentration below which no binding to SSTR5
[11] = displacement of iodinated SRIF-28 radioligand, read-out: IC50 / binding affinity at human SSTR1
[12] = inhibition of radioligand binding of 125I-[Leu8,D-Trp22,Tyr24]SRIF-28, cloned receptor, table, read-out: IC50 (nM) mSSTR1

## CC(C)NCc1ccc(C[C@@H]2NC(=O)[C@@H](Cc3c[nH]c4ccccc34)NC(=O)[C@H](Cc3ccccc3)NC(=O)[C@H](Cc3ccccc3)NC(=O)[C@H](CCCCN)NC(=O)[C@@H](N)CSSC[C@@H](C(=O)O)NC(=O)[C@H](CO)NC(=O)[C@H]([C@@H](C)O)NC(=O)[C@H](Cc3ccc(O)cc3)NC(=O)[C@H]([C@@H](C)O)NC2=O)cc1 [2A, (cyclo)H-Cys-Lys-Phe-Phe-D-Trp-IAmp-Thr-Tyr-Thr-Ser-Cys-OH] (H-CKFF[dW][Phe(4-CH2NHiPr)]TYTSC-OH; disulfide 1-11)
[1]; [6]
  IC50: > 10000 nM
[2]; read-out: IC50 (nM) mSSTR2
  IC50: > 10000 nM
[3]
  effect on binding of the SRIF-28 radioligand to human SSTR3: even less effect
[4]
  binding strength and selectivity for SSTR1, in words: continues to bind strongly

## CC(C)NCc1ccc(C[C@H]2C(=O)N[C@@H]([C@@H](C)O)C(=O)N[C@@H](Cc3ccc(O)cc3)C(=O)N[C@@H]([C@@H](C)O)C(=O)N[C@@H](CO)C(=O)N[C@H](C(=O)O)CSSC[C@H](N)C(=O)N[C@@H](CCCCN)C(=O)N[C@@H](Cc3ccccc3)C(=O)N[C@@H](Cc3ccccc3)C(=O)N[C@H](Cc3c[nH]c4ccccc34)C(=O)N2C)cc1 [Peptide No. 2, (cyclo)H-Cys-Lys-Phe-Phe-D-Trp-N^αMeIAmp-Thr-Tyr-Thr-Ser-Cys-OH] (H-CKFF[dW][NMePhe(4-CH2NHiPr)]TYTSC-OH; disulfide 1-11)
[1]
  binding to SSTR4, in words: does not bind strongly
[1]; at concentrations of 100 nM
  effect on binding of the SRIF-28 radioligand to human SSTR4: minimal effects
[1]; read-out: IC50 (nM) mSSTR4
  IC50: > 1000 nM
[2]; at concentrations of 100 nM
  effect on binding of the SRIF-28 radioligand to human SSTR2: minimal effects
[2]; [7]
  IC50: > 10000 nM
[2]; [8]
  IC50: > 10000 nM
[3]
  binding to SSTR3, in words: does not bind strongly
  effect on binding of the SRIF-28 radioligand to human SSTR3: minimal effects
[3]; read-out: IC50 (nM) mSSTR3
  IC50: > 1000 nM
[5]; at concentrations of 100 nM
  effect on binding of the SRIF-28 radioligand to human SSTR5: minimal effects
[5]; [9]
  IC50: > 10000 nM
[5]; [10]
  IC50: > 10000 nM
[4]; [11]
  IC50: ~6.1 nM
[4]; [12]
  IC50: 7.2 nM

## CC(C)NCc1ccc(C[C@@H]2NC(=O)[C@@H](Cc3c[nH]c4ccccc34)NC(=O)[C@H](Cc3ccccc3)NC(=O)[C@H](Cc3ccccc3)NC(=O)[C@H](CCCCN)NC(=O)[C@@H](N)CSSC[C@@H](C(=O)O)NC(=O)[C@H](CO)NC(=O)[C@H]([C@@H](C)O)NC(=O)[C@H](Cc3ccc(O)c(I)c3)NC(=O)[C@H]([C@@H](C)O)NC2=O)cc1 [Peptide No. 2B] (H-CKFF[dW][Phe(4-CH2NHiPr)]T[Tyr(3-I)]TSC-OH; disulfide 1-11)
[2]; read-out: IC50 (nM) mSSTR2
  IC50: > 10000 nM

## CC(C)NCc1ccc(C[C@H]2C(=O)N[C@@H]([C@@H](C)O)C(=O)N[C@@H](Cc3ccc(O)cc3)C(=O)N[C@@H]([C@@H](C)O)C(=O)N[C@@H](CO)C(=O)N[C@H](C(=O)O)CSSC[C@H](N)C(=O)N[C@@H](CCCCN)C(=O)N[C@@H](Cc3ccccc3)C(=O)N[C@@H](Cc3ccccc3)C(=O)N[C@H](Cc3ccc4ccccc4c3)C(=O)N2C)cc1 [Peptide No. 9A, (cyclo)H-Cys-Lys-Phe-Phe-D-2Nal-N^αMeIAmp-Thr-Tyr-Thr-Ser-Cys-OH] (H-CKFF[d2Nal][NMePhe(4-CH2NHiPr)]TYTSC-OH; disulfide 1-11)
[1]; [6]
  IC50: > 1000 nM
[1]; read-out: concentration below which no binding to SSTR4
  IC50: > 10000 nM
[2]; [7]
  IC50: > 10000 nM
[2]; [8]
  IC50: > 10000 nM
[3]; inhibition of radioligand binding of 125I-[Leu8,D-Trp22,Tyr24]SRIF-28, cloned receptor, table, read-out: IC50 (nM) mSSTR3
  IC50: > 1000 nM
[3]; read-out: concentration below which no binding to SSTR3
  IC50: > 1000 nM
[5]; [9]
  IC50: > 10000 nM
[5]; [10]
  IC50: > 10000 nM
[4]; [11]
  IC50: ~21 nM
[4]; [12]
  IC50: 24.5 nM

## CC(C)NCc1ccc(C[C@H]2C(=O)N[C@@H]([C@@H](C)O)C(=O)N[C@@H](Cc3ccc(O)cc3)C(=O)N[C@@H]([C@@H](C)O)C(=O)N[C@@H](CO)C(=O)N[C@H](C(=O)O)CSSC[C@H](NC(N)=O)C(=O)N[C@@H](CCCCN)C(=O)N[C@@H](Cc3ccccc3)C(=O)N[C@@H](Cc3ccccc3)C(=O)N[C@H](Cc3c[nH]c4ccccc34)C(=O)N2C)cc1 [Peptide No. 12, (cyclo)CbmCys-Lys-Phe-Phe-D-Trp-N^αMeIAmp-Thr-Tyr-Thr-Ser-Cys-OH] (KFF[dW][NMePhe(4-CH2NHiPr)]TYTSC-OH; linker N-10 via X1)
[1]; read-out: IC50 (nM) mSSTR4
  IC50: > 1000 nM
[2]; read-out: IC50 (nM) mSSTR2
  IC50: > 10000 nM
[3]; read-out: IC50 (nM) mSSTR3
  IC50: > 1000 nM
[5]; read-out: IC50 (nM) mSSTR5
  IC50: > 10000 nM
[4]
  binding strength and selectivity for SSTR1, in words: good selectivity with good binding strength
[4]; [12]
  IC50: 43 nM

## CC(C)NCc1ccc(C[C@@H]2NC(=O)[C@@H](Cc3c[nH]c4ccccc34)NC(=O)[C@H](Cc3ccccc3)NC(=O)[C@H](Cc3ccccc3)NC(=O)[C@H](CCCCN)NC(=O)[C@@H](NC(N)=O)CSSC[C@@H](C(=O)O)NC(=O)[C@H](CO)NC(=O)[C@H]([C@@H](C)O)NC(=O)[C@H](Cc3ccc(O)c(I)c3)NC(=O)[C@H]([C@@H](C)O)NC2=O)cc1 [Peptide No. 12B] (KFF[dW][Phe(4-CH2NHiPr)]T[Tyr(3-I)]TSC-OH; linker N-10 via X1)
[2]; read-out: IC50 (nM) mSSTR2
  IC50: > 10000 nM

## CC(C)NCc1ccc(C[C@H]2C(=O)N[C@@H]([C@@H](C)O)C(=O)N[C@@H](Cc3ccccc3)C(=O)N[C@@H]([C@@H](C)O)C(=O)N[C@@H](CO)C(=O)N[C@H](C(=O)O)CSSC[C@H](NC(=O)[C@@H](N)Cc3ccc(O)cc3)C(=O)N[C@@H](CCCCN)C(=O)N[C@@H](Cc3ccccc3)C(=O)N[C@@H](Cc3ccccc3)C(=O)N[C@H](Cc3c[nH]c4ccccc34)C(=O)N2C)cc1 [Peptide No. 27, (cyclo)H-Tyr-Cys-Lys-Phe-Phe-D-Trp-N^αMeIAmp-Thr-Phe-Thr-Ser-Cys-OH] (H-YCKFF[dW][NMePhe(4-CH2NHiPr)]TFTSC-OH; disulfide 2-12)
[1]
  binding to SSTR4, in words: No specific binding
[1]; [6]
  IC50: 300 nM
[2]; Peptide No. 27 iodinated
  binding to SSTR2, in words: No specific binding
[2]; read-out: IC50 (nM) mSSTR2
  IC50: > 10000 nM
[3]
  binding to SSTR3, in words: No specific binding
[3]; read-out: IC50 (nM) mSSTR3
  IC50: > 1000 nM
[4]; [12]
  IC50: 25 nM

## (cyclo 3-14)MeCbm-Cys-Lys-Phe-Phe-D-Trp-N^αMeIAmp-Thr-Tyr-Thr-Ser-Cys-OH [Peptide No. 17]
[4]
  binding strength and selectivity for SSTR1, in words: bind strongly and selectively

## (cyclo) (DOTA)Cys-Lys-Phe-Phe-D-Trp-N^αMeIAmp-Thr-Tyr-Thr-Ser-Cys-OH [Peptide No. 25]
[4]
  binding strength and selectivity for SSTR1, in words: continue to bind strongly and selectively

## (cyclo) (DPTA)Cys-Lys-Phe-Phe-D-Trp-N^αMeIAmp-Thr-Tyr-Thr-Ser-Cys-OH [Peptide No. 26]
[4]
  binding strength and selectivity for SSTR1, in words: continue to bind strongly and selectively

## (cyclo)Biucys-Lys-Phe-Phe-D-Trp-N^αMeIAmp-Thr-Tyr-Thr-Ser-Cys-OH [Peptide No. 18]
[4]
  binding strength and selectivity for SSTR1, in words: bind strongly and selectively
